From patent publication US7772430B2, “Derivatives of arylsulfonamido-substituted hydroxamic acid as matrix metalloproteinases inhibitors” (Protera S.R.L., priority 2004, dated 2010)

Assays:
[1] = biological target: T1, Catalytic domain of MMP-12 (Homo sapiens, UniProt P39900); experiment: In vitro inhibition test, fluorogenic peptide substrate (Knight et al.); type: biochemical; conditions: 298 K, pH 7, 1% DMSO; stated in words only
T1 construct: Catalytic domain of MMP-12 was cloned, expressed and purified; made in house
Protocol: The compounds of the invention, prepared as above described, were tested in vitro according to the method reported by Knight et al. in FEBS Lett 1992, 296 (3):263.
Catalytic domain of MMP-12 was cloned, expressed and purified according to the procedure reported in Banci et al. Journal of Molecular Catalysis A: Chemical, 2003, Vol. 204-205, pp. 401-408). Preparation of catalytic domain of MMP-1 was performed as follows: proMMP-1 cDNA was cloned into the pET21 (Novagen) expression vector. The recombinant vector was transformed into Escherichia Coli BL21 cells. The bacteria were grown in 2 XYt media and incubated at 37° C. When the cells reached the exponential growth phase, the expression of the protein was induced by adding 0.5 mM of IPTG and the incubation was continued further for four hours. […]
The protein was maintained in presence of inhibitor for 5 min before the substrate was added. Subsequently, after addition of peptidic substrate, the increase of fluorescence intensity was measured vs. time (excitation 328 nm, emission 393 nm) using a Varian/Eclipse fluorimeter.
Matrix metalloproteinases cleave peptidic bond glycine-leucine separating coumarinic group from 2,4-dinitrophenol and so causing a high increase of fluorescence intensity under the conditions indicated above. […]

[2] = Solubility in water; type: physicochemical; conditions: stated in words only

T1 sequence (P39900 106-263 limits assumed): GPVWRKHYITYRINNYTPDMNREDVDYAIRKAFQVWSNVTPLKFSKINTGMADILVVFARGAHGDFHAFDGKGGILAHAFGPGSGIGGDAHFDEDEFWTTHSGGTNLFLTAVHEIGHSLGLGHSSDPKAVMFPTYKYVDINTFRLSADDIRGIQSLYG

- solubility in water [2]: good solubility
Compound: COc1ccc(S(=O)(=O)NC(CO)C(=O)NO)cc1 (centres unmarked) [Example 7, 3,N-dihydroxy-2-[(4-methoxy-benzenesulfonyl)amino]-propionamide]
- ability to inhibit MMP-12 (from IC50 data) [1]: do not have the inhibition activity and selectivity of present compounds of formula (I)
